In patent US5446207A, “Anti-dyslipidemic agents” (Harbor Branch Oceanographic Institution, Inc., priority 1993, dated 1995):

Target: T1, recombinant CETP (rCETP) (Homo sapiens, UniProt P11597)
T1 sequence (P11597 18-493): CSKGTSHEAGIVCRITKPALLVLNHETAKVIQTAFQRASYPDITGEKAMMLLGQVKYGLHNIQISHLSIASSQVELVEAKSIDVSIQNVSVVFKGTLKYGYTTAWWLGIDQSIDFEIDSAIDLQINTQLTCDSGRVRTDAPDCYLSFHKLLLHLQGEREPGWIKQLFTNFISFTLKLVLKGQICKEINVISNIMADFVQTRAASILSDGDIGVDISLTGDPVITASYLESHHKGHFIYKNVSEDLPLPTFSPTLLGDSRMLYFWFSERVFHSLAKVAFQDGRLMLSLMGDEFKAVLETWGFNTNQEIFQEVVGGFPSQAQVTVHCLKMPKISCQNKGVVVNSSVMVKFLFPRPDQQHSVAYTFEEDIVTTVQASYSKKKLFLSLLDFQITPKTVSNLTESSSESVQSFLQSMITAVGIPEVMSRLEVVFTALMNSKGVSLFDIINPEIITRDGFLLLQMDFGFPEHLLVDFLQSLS
Test: CETP scintillation proximity assay (transfer of [3H]cholesteryl esters from HDL to biotinylated LDL)
Assay type: biochemical
Settings: for IC50: rCETP, 37° C., 4 hours, SPA, read-out: IC50 (inhibition of CETP transfer activity); for activity in the cholesteryl ester transfer protein (CETP) assay: statement in words
Experimental: This assay used a commercially available CETP Scintillation Proximity Assay kit (Amersham TRKQ7015). In this assay, the transfer of [^3 H]cholesteryl esters from high density lipoprotein (HDL) to biotinylated low density lipoproteins (LDL) was measured following incubation of donor and acceptor particles in the presence of recombinant CETP (rCETP; see Wang S. et al J. Biol. Chem. (1992) 267:1746-17490 which is herein incorporated by reference). Following incubation, the reaction was terminated and transfer was measured in a single step addition of streptavidin SPA beads, formulated in an assay terminal buffer (Amersham). The rate of increase in signal was proportional to the transfer of [^3 H]cholesteryl ester by CETP.
To 96-well microtiter plates ([…] Microlite) was pipetted 5 μl of sample (or buffer for blank) of appropriate dilution. […] As a control, 5 μl of CETP monoclonal antibody TP-1, 1:10 dilution from ascites was added. The reaction was started by adding 45 μl of the following mixtures to each well.
20 μl of assay buffer (from kit)
10 μl ^3 H]Cholesteryl ester-HDL (from kit)
10 μl of biotinylated LDL (from kit)
The contents of the plate were mixed briefly by tapping the plate gently and then the plate was sealed with parafiim to prevent evaporation during the incubation. The plates were incubated at 37° C. for 4 hours. After incubation the reaction was stopped by adding 200 μl of streptavidin beads to each well. The beads were shaken gently before addition. The mixture was incubated at room temperature for 30 minutes to allow the assay to come to equilibrium with beads. Dpm were counted on a TopCount (Packard Instrument Company, Downers Grove, Ill.) (A conventional scintillation counter with window settings fully open may also be used).

Row | SMILES | IC50 | activity in the cholesteryl ester transfer protein (CETP) assay
1 | COc1ccc(O)c(O)c1/C=C1\[C@@H](C)CC[C@H]2C(C)(C)CCC[C@]12C (relative stereo) [Compound B, wiedendioI-B] | 2900 nM | active
2 | COc1ccc(O)c(O)c1CC1=C(C)CC[C@H]2C(C)(C)CCC[C@]12C (relative stereo) [Compound A, wiedendioI-A] | 2000 nM | active
